Converted amounts (≈) assume the structure as drawn. *1 amine or outer side, *2 acyl side, *3 side chain or, on linkers, in order; H or OH if unused. Where a SMILES comes first, the peptide text is derived from it. Bridges are numbered along the chain shown (N, C = ends). [ ]: non-standard residue; d: D form. The star is where a group is joined. pTerphenylCO(4''-OnC5H11) = CCCCCOc1ccc(-c2ccc(-c3ccc(C(=O)*)cc3)cc2)cc1; Orn(4R-OH,5R-OH) = O=C([C@H](C[C@@H](O)[C@@H](O)N[*:3])N[*:1])[*:2]; hTyr(3S-OH,4S-OH) = N[C@H](C(=O)O)[C@H](O)[C@@H](O)c1ccc(O)cc1; Pro(3S-OH,4S-Me) = C[C@H]1CN[C@H](C(=O)O)[C@H]1O; Hyp = O=C(O)[C@@H]1C[C@@H](O)CN1
Experiments:
Assay type in all cases: functional
[1] = test system: Aspergillus flavus; assay: Antimicrobial activity against Aspergillus flavus hyphae isolated from aspergillosis patient after 48 hrs under hypoxic condition by broth microdilution method in presence of voriconazole
[2] = test system: Aspergillus niger; assay: Antimicrobial activity against Aspergillus niger conidia isolated from aspergillosis patient after 48 hrs under hypoxic condition by broth microdilution method in presence of voriconazole
[3] = test system: Aspergillus terreus; assay: Antimicrobial activity against Aspergillus terreus conidia isolated from aspergillosis patient after 48 hrs under hypoxic condition by broth microdilution method in presence of voriconazole
[4] = test system: Aspergillus terreus; assay: Antimicrobial activity against Aspergillus terreus hyphae isolated from aspergillosis patient after 48 hrs under hypoxic condition by broth microdilution method
[5] = test system: Aspergillus flavus; assay: Antimicrobial activity against Aspergillus flavus conidia isolated from aspergillosis patient after 48 hrs under hypoxic condition by broth microdilution method in presence of voriconazole
[6] = test system: Aspergillus niger; assay: Antimicrobial activity against Aspergillus niger conidia isolated from aspergillosis patient after 48 hrs under hypoxic condition by broth microdilution method
[7] = test system: Aspergillus niger; assay: Antimicrobial activity against Aspergillus niger hyphae isolated from aspergillosis patient after 48 hrs under hypoxic condition by broth microdilution method
[8] = test system: Aspergillus flavus; assay: Antimicrobial activity against Aspergillus flavus conidia isolated from aspergillosis patient after 48 hrs under hypoxic condition by broth microdilution method
[9] = test system: Aspergillus fumigatus; assay: Antimicrobial activity against Aspergillus fumigatus conidia isolated from aspergillosis patient after 48 hrs under hypoxic condition by broth microdilution method in presence of voriconazole
[10] = test system: Aspergillus niger; assay: Antimicrobial activity against Aspergillus niger hyphae isolated from aspergillosis patient after 48 hrs under hypoxic condition by broth microdilution method in presence of voriconazole
[11] = test system: Aspergillus terreus; assay: Antimicrobial activity against Aspergillus terreus conidia isolated from aspergillosis patient after 48 hrs under hypoxic condition by broth microdilution method
[12] = test system: Aspergillus terreus; assay: Antimicrobial activity against Aspergillus terreus hyphae isolated from aspergillosis patient after 48 hrs under hypoxic condition by broth microdilution method in presence of voriconazole
[13] = test system: Aspergillus fumigatus; assay: Antimicrobial activity against Aspergillus fumigatus hyphae isolated from aspergillosis patient after 48 hrs under hypoxic condition by broth microdilution method in presence of voriconazole
[14] = test system: Aspergillus flavus; assay: Antimicrobial activity against Aspergillus flavus hyphae isolated from aspergillosis patient after 48 hrs under hypoxic condition by broth microdilution method
[15] = test system: Aspergillus fumigatus; assay: Antimicrobial activity against Aspergillus fumigatus hyphae isolated from aspergillosis patient after 48 hrs under hypoxic condition by broth microdilution method
[16] = test system: Aspergillus fumigatus; assay: Antimicrobial activity against Aspergillus fumigatus conidia isolated from aspergillosis patient after 48 hrs under hypoxic condition by broth microdilution method

Structure (SMILES)	fractional inhibitory concentration index (FICI) [1]	fractional inhibitory concentration index (FICI) [2]	fractional inhibitory concentration index (FICI) [3]	MIC [4] [µg/mL]	fractional inhibitory concentration index (FICI) [5]	MIC [6] [µg/mL]	MIC [7] [µg/mL]	MIC [8] [µg/mL]	fractional inhibitory concentration index (FICI) [9]	fractional inhibitory concentration index (FICI) [10]	MIC [11] [µg/mL]	fractional inhibitory concentration index (FICI) [12]	fractional inhibitory concentration index (FICI) [13]	MIC [14] [µg/mL]	MIC [15] [µg/mL]	MIC [16] [µg/mL]
CCCCCOc1ccc(-c2ccc(-c3ccc(C(=O)N[C@H]4C[C@@H](O)[C@@H](O)NC(=O)[C@@H]5[C@@H](O)[C@@H](C)CN5C(=O)[C@H]([C@@H](C)O)NC(=O)[C@H]([C@H](O)[C@@H](O)c5ccc(O)cc5)NC(=O)[C@@H]5C[C@@H](O)CN5C(=O)[C@H]([C@@H](C)O)NC4=O)cc3)cc2)cc1 [ANIDULAFUNGIN] ({pTerphenylCO(4''-OnC5H11)}-[Orn(4R-OH,5R-OH)]T[Hyp][hTyr(3S-OH,4S-OH)]T[Pro(3S-OH,4S-Me)]; lactam 1-C)	1	0.5	0.9	0.01 (≈ 0.00877 µM)	0.7	0.008 (≈ 0.00702 µM)	0.01 (≈ 0.00877 µM)	0.06 (≈ 0.0526 µM)	0.7	0.7	0.01 (≈ 0.00877 µM)	0.8	1	0.03 (≈ 0.0263 µM)	0.03 (≈ 0.0263 µM)	0.01 (≈ 0.00877 µM)
C[C@@H](c1ncncc1F)[C@](O)(Cn1cncn1)c1ccc(F)cc1F [VORICONAZOLE]				1 (≈ 2.86 µM)		1 (≈ 2.86 µM)	1 (≈ 2.86 µM)	1 (≈ 2.86 µM)			1 (≈ 2.86 µM)			2 (≈ 5.73 µM)	1 (≈ 2.86 µM)	0.5 (≈ 1.43 µM)
